Assay results reported in patent publication US20060014776A1, “Antitumoral compounds” (Instituto Biomar S.A., priority 2004, published 2006).

How the values were obtained:
H125 (lung) = assay: Disk diffusion soft agar colony formation assay, H125; format: cell-based, human
From the text: (§1) An in vitro cell-based assay was employed to identify solid tumor selectivity for compound IV. The differential cytotoxicity (Valeriote, F.; Grieshaber, C. K.; Media, J.; Pietraszkiewicz, H.; Hoffman, J.; Pan, M.; McLaughlin, S. J. Exp. Ther. Oncol. 2002, 2, 228-236) is expressed by observing a zone differential between any solid tumor cell (Colon38, ColonH116, Lung H125) and either leukemia cells (L1210 or CEM) or normal cells (CFU-GM). A sample is designated as “solid tumor selective” if (zone units of solid tumor—normal cells or leukemia cells) is greater than 250 units.
(§2) Colon 38 gives a good monodispersed cell suspension with mechanical disruption from a mouse tumor. […]
(§3) All of the human cancer cell lines are maintained in cell culture. […] The cells are passed through an 18-gauge needle twice and the monodispersed suspension counted. […]
(§4) A volume of 15 μl of each sample is dropped onto a 6.5 mm disk (Baxter filter disks). […] The plates are incubated for 7-10 days (depending upon the cell type) and examined by an inverted stereo-microscope (10×) for measurement of the zone of inhibition measured from the edge of the filter disk to the beginning of normal-sized colony formation. […] At some dilution, quantifiable cytotoxicity is invariably obtained.
(§5) • a Measured in zone units: 200 zone units=6 mm. […]

H116 (colon) = assay: Disk diffusion soft agar colony formation assay, H116; format: cell-based, human
From the text: as §1, §2, §3, §4, §5

[1] = system: CFU-GM-h (colony-forming unit-granulocyte macrophage; normal hematopoietic); assay: Disk diffusion soft agar colony formation assay, CFU-GM-h; format: cell-based, human; conditions: 7.5 μg/ml
From the text: as §1, §2, §3, §4, §5

[2] = system: CFU-GM-m (colony-forming unit-granulocyte macrophage; normal hematopoietic); assay: Disk diffusion soft agar colony formation assay, CFU-GM-m; format: cell-based, murine; conditions: 7.5 μg/ml
From the text: as §1, §2, §3, §4, §5

Pharmacokinetics = format: in vivo, male SCID mice bearing H116 tumors; conditions: 18.5 mg/kg
Procedure: Compound IV was administered at 18.5 mg/kg to male SCID mice bearing H116 tumors.
By 24 h after drug administration, the concentration of compound IV is about 100 ng/ml.

[3] = system: C38 (colon adenocarcinoma); assay: Disk diffusion soft agar colony formation assay, C38; format: cell-based, murine
From the text: as §1, §2, §3, §4, §5

[4] = mouse, in vivo
Procedure: In this dose calculation stage, the projected starting dose is based primarily on the solubility of the new compound. Potential doses are calculated on the basis of blood volume and total body water in mice.
The starting dose is selected on the basis of solubility of the compound in biologically compatible solvents, and the potency derived from in vitro studies.
To start, one normal SCID mouse is dosed intravenously with the solubilized/formulated compound via a one-hour infusion at a maximum dose of 20 mg/mL. The volume infused is 0.25 ml over the one-hour period. If the animal survives the dosing period, clinical signs are noted, and the animal is sacrificed at two hours post infusion and blood collected for subsequent analytical determinations. Two additional SCID mice are then similarly infused with the compound, one being sacrificed at the end of infusion and blood collected and analyzed for drug concentration. The third animal is housed for 2 weeks to ascertain survival, and then euthanized. During the two-week observation period, the animal will be monitored for clinical signs of distress and euthanized if moribund. The dosing data and pharmacologic information (estimate of half-life) from these three animals will guide the subsequent time-course study by approximating a tolerable dose and clearance of the agent. […]

CEM (leukemia) = assay: Disk diffusion soft agar colony formation assay, CEM; format: cell-based, human
From the text: as §1, §2, §3, §4, §5

[5] = system: L1210 (lymphocytic leukemia); assay: Disk diffusion soft agar colony formation assay, L1210; format: cell-based, murine; conditions: 7.5 μg/ml
From the text: as §1, §2, §3, §4, §5

[6] = system: HCT-116 cells in SCID mice; assay: In vivo therapeutic trials; conditions: for time taken for tumor volume to reach 4-times the initial volume: control 7 days
Procedure: For the in vivo studies HCT-116 cells in SCID mice will be used. Individual mouse body weights for each experiment are within 5 g and all mice are over 17 g at the start of therapy. The mice are supplied food and water ad libidum. The animals are pooled, implanted subcutaneously with 10^7 cultured cells, and pooled again before distribution to treatment and control groups. Chemotherapy is started when the tumors reach a measurable size (about 150 mm^3). Initially, a 1 hour intravenous infusion will be given and the whole animal toxicity and therapeutic effect correlated with the pharmacology studies described above. Dosage levels are usually closely spaced (2-fold increments or 0.5 decrements). All drugs will be administered intravenously. Mice are killed when their tumors reach 1500 mm^3. Tumor weights are estimated from 2-dimensional caliper measurements done twice a week: Tumor Weight (mg)=(a×b^2)/2 • where a and b are the tumor length and width, respectively, in mm.
For this in vivo study with compound IV, 4 mice were in the control group, 4 in the 2 mg/ml and 1 in the 3 mg/ml groups.
The data were analyzed in terms of time taken for tumor volume to reach 4-times the initial volume. For control tumors this was 7 days, for the 2 mg/ml (0.5 mg/mouse; 25 mg/kg) dose, this was 10 days; and for the 3 mg/ml (0.75 mg/mouse; […]), this was 15 days. Thus, at the maximum tolerated dose there was a T/C of about 50%.

H116 human colon cells = assay: Clonogenic assay; format: cell-based
Procedure: Concentration- and time-survival studies will be carried out against HCT-116 cells. HCT-116 cells are seeded at 200 to 20,000 cells in 60 mm dishes. Drug is added to the medium (RPMI+10% FBS) at concentrations of 1 mg/ml and 10-fold dilutions thereof. […] The dishes are incubated for 7 days, media removed and the colonies stained with methylene blue. Colonies containing 50 cells or more are counted. The results are normalized to an untreated control. Plating efficiency for the untreated cells is about 90%. Repeat experiments are carried out to define the cell survival range between 100% and […]. Subsequently, a concentration is chosen that yields a survival of 10^−2 at 24 hr and time-survival studies carried out from 0 to 48 hr. Both concentration- and time-survival curves are constructed so that AUC values can be calculated. A comparison of tumor to normal provides a theoretical basis for determining whether a compound might be active in therapeutic trials in vivo.

SMILES: COc1cc(-c2ccnc3c2C(=O)c2ncc(C)cc2C3=O)ccc1OCCCN [Compound IV]
- zone of inhibition H125 (H125 (lung); 1.9 μg/ml): 600 zone units
- zone of inhibition H125 (H125 (lung); 7.5 μg/ml): >1000 zone units
- zone of inhibition H116 (H116 (colon); 1.9 μg/ml): 350 zone units
- zone of inhibition H116 (H116 (colon); 7.5 μg/ml): 800 zone units
- zone of inhibition CFU-GMh [1]: 650 zone units
- zone of inhibition CFU-GMm [2]: 650 zone units
- concentration attained in the plasma (Pharmacokinetics; over at least a 2-h period): approximately 1 μg/ml
- concentration attained in the tumor (Pharmacokinetics; over at least a 2-h period): approximately 1 μg/ml
- concentration at 24 h (Pharmacokinetics; male, SCID, mouse, in vivo, 24 h after drug administration, read-out: concentration of compound IV): ~100 ng/mL
- zone of inhibition C38 ([3]; 1.9 μg/ml): 100 zone units
- zone of inhibition C38 ([3]; 7.5 μg/ml): 550 zone units
- Lethal Dose ([4]; SCID): 50 mg/kg
- observation after injection ([4]; 40 mg/kg): survived but looked shaky right after injection
- zone of inhibition CEM (CEM (leukemia); 1.9 μg/ml): 150 zone units
- zone of inhibition CEM (CEM (leukemia); 7.5 μg/ml): 550 zone units
- zone of inhibition L1210 [5]: 500 zone units
- time taken for tumor volume to reach 4-times the initial volume ([6]; 2 mg/ml (0.5 mg/mouse; 25 mg/kg) dose): 10 days
- time taken for tumor volume to reach 4-times the initial volume ([6]; 3 mg/ml (0.75 mg/mouse; 38.5 mg/kg)): 15 days
- T/C ([6]; at the maximum tolerated dose): about 50%
- concentration at which a therapeutic effect would be obtained (H116 human colon cells; 7-day continuous exposure): ~0.2 µg/mL
- concentration at which a therapeutic effect would be obtained (H116 human colon cells; maintained for a 24 h period): ~10 µg/mL
